From ChEMBL document CHEMBL4765407, “Design, synthesis and high antitumor potential of new unsymmetrical bisacridine derivatives towards human solid tumors, specifically pancreatic cancers and their unique ability to stabilize DNA G-quadruplexes” (Eur J Med Chem, 2020)

Key:
[1] = test system: DU-145; assay: Antitumour activity against human DU-145 cells xenografted in Crl:Nu-Foxnl nu mouse assessed as inhibition of tumour growth at total effective dose of 8 mg/kg, iv measured on day 33; type: functional; conditions: DU-145, iv, 792 h, time 33 day, read-out: TGI
[2] = test system: Quadruplex DNA; assay: Stabilization of 5'-FAM/3'-TAMRA labeled K-Ras G4 quadruplex DNA (unknown origin) assessed as change in melting temperature at 10 microM measured after 15 mins by FRET assay; type: nucleic-acid assay
[3] = test system: W256; assay: Antitumour activity against Walker 256 adenocarcinoma cells implanted in Wistar rat assessed as increase in animal survival rate by measuring T/C ratio at 2 mg/kg, ip qd for 3 days administered on day 3,4,5 after tumor cell transplantation; type: functional; conditions: time 3 day
[4] = test system: PC-3; assay: Cytotoxicity against human PC-3 cells assessed as reduction in cell viability measured after 72 hrs by SRB assay; type: functional, cell-based; conditions: PC-3, 72 h
[5] = test system: HT-29; assay: Cytotoxicity against human HT-29 cells assessed as reduction in cell viability measured after 72 hrs by SRB assay; type: functional, cell-based; conditions: HT-29, 72 h
[6] = test system: LNCaP; assay: Cytotoxicity against human LNCaP cells assessed as reduction in cell viability measured after 72 hrs by SRB assay; type: functional, cell-based
[7] = test system: PANC-1; assay: Antitumour activity against human PANC-1 cells xenografted in Crl:Nu-Foxnl nu mouse assessed as inhibition of tumour growth at total effective dose of 120 mg/kg, iv measured on day 51; type: functional; conditions: PANC-1, iv, 1224 h, time 51 day, read-out: TGI
[8] = test system: MDA-MB-231; assay: Cytotoxicity against human MDA-MB-231 cells assessed as reduction in cell viability measured after 72 hrs by SRB assay; type: functional, cell-based; conditions: MDA-MB-231, 72 h
[9] = test system: DU-145; assay: Antitumour activity against human DU-145 cells xenografted in Crl:Nu-Foxnl nu mouse assessed as inhibition of tumour growth at total effective dose of 32 mg/kg, iv measured on day 63; type: functional; conditions: DU-145, iv, 1512 h, time 63 day, read-out: TGI
[10] = test system: HCT-116; assay: Cytotoxicity against human HCT-116 cells assessed as reduction in cell viability measured after 72 hrs by SRB assay; type: functional, cell-based; conditions: HCT-116, 72 h
[11] = test system: BXPC-3; assay: Cytotoxicity against human BXPC-3 cells assessed as reduction in cell viability measured after 72 hrs by SRB assay; type: functional, cell-based; conditions: BXPC-3, 72 h
[12] = test system: Quadruplex DNA; assay: Stabilization of 5'-FAM/3'-TAMRA labeled telomeric G4 quadruplex DNA F21T (unknown origin) assessed as change in melting temperature at 10 microM measured after 15 mins by FRET assay; type: nucleic-acid assay
[13] = test system: PANC-1; assay: Cytotoxicity against human PANC-1 cells assessed as reduction in cell viability measured after 72 hrs by SRB assay; type: functional, cell-based; conditions: PANC-1, 72 h
[14] = test system: Quadruplex DNA; assay: Stabilization of 5'-FAM/3'-TAMRA labeled c-Myc promoter G4 quadruplex DNA FPu18 (unknown origin) assessed as change in melting temperature at 10 microM measured after 15 mins by FRET assay; type: nucleic-acid assay
[15] = test system: UMUC3; assay: Cytotoxicity against human UMUC3 cells assessed as reduction in cell viability measured after 72 hrs by SRB assay; type: functional, cell-based; conditions: UMUC3, 72 h
[16] = Stabilization of ds 5'-FAM-d(TATAGCTATA-HEG-TATAGCTATA)-TAMRA-3' (unknown origin) assessed as change in melting temperature at 10 microM measured after 15 mins by FRET assay; conditions: Homo sapiens
[17] = test system: MCF7; assay: Cytotoxicity against human MCF7 cells assessed as reduction in cell viability measured after 72 hrs by SRB assay; type: functional, cell-based; conditions: MCF7, 72 h
[18] = test system: NCI-H460; assay: Antitumour activity against human NCI-H460 cells xenografted in Crl:Nu-Foxnl nu mouse assessed as inhibition of tumour growth at total effective dose of 10 mg/kg, iv measured on day 21; type: functional; conditions: 504 h, time 21 day, read-out: TGI
[19] = test system: MIA PaCa-2; assay: Cytotoxicity against human MIA PaCa-2 cells assessed as reduction in cell viability measured after 72 hrs by SRB assay; type: functional, cell-based; conditions: MIA PaCa-2, 72 h
[20] = test system: DU-145; assay: Cytotoxicity against human DU-145 cells assessed as reduction in cell viability measured after 72 hrs by SRB assay; type: functional, cell-based; conditions: DU-145, 72 h
[21] = test system: ASPC1; assay: Cytotoxicity against human ASPC1 cells assessed as reduction in cell viability measured after 72 hrs by SRB assay; type: functional, cell-based; conditions: ASPC1, 72 h
[22] = test system: NCI-H460; assay: Cytotoxicity against human NCI-H460 cells assessed as reduction in cell viability measured after 72 hrs by SRB assay; type: functional, cell-based; conditions: NCI-H460, 72 h
[23] = test system: MDA-MB-231; assay: Antitumour activity against human MDA-MB-231 cells xenografted in Crl:Nu-Foxnl nu mouse assessed as inhibition of tumour growth at total effective dose of 8 mg/kg, iv measured on day 50; type: functional; conditions: MDA-MB-231, iv, 1200 h, time 50 day, read-out: TGI
[24] = test system: W256; assay: Antitumour activity against Walker 256 adenocarcinoma cells implanted in Wistar rat assessed as increase in animal survival rate by measuring T/C ratio at 6.25 mg/kg, ip qd for 3 days administered on day 3,4,5 after tumor cell transplantation; type: functional; conditions: time 3 day
[25] = test system: DU-145; assay: Antitumour activity against human DU-145 cells xenografted in Crl:Nu-Foxnl nu mouse assessed as inhibition of tumour growth at total effective dose of 48 mg/kg, ip measured on day 35; type: functional; conditions: DU-145, ip, 840 h, time 35 day, read-out: TGI
[26] = test system: NCI-H460; assay: Antitumour activity against human NCI-H460 cells xenografted in Crl:Nu-Foxnl nu mouse assessed as inhibition of tumour growth at total effective dose of 30 mg/kg, ip measured on day 14; type: functional; conditions: 336 h, time 14 day, read-out: TGI
[27] = test system: W256; assay: Antitumour activity against Walker 256 adenocarcinoma cells implanted in Wistar rat assessed as increase in animal survival rate by measuring T/C ratio at 4 mg/kg, ip qd for 3 days administered on day 3,4,5 after tumor cell transplantation; type: functional; conditions: time 3 day
[28] = test system: PANC-1; assay: Antitumour activity against human PANC-1 cells xenografted in Crl:Nu-Foxnl nu mouse assessed as inhibition of tumour growth at total effective dose of 16 mg/kg, iv measured on day 37; type: functional; conditions: PANC-1, iv, 888 h, time 37 day, read-out: TGI
[29] = test system: DU-145; assay: Antitumour activity against human DU-145 cells xenografted in Crl:Nu-Foxnl nu mouse assessed as inhibition of tumour growth at total effective dose of 40 mg/kg, ip measured on day 35; type: functional; conditions: DU-145, ip, 840 h, time 35 day, read-out: TGI
[30] = test system: UMUC3; assay: Antitumour activity against human UMUC3 cells xenografted in Crl:Nu-Foxnl nu mouse assessed as inhibition of tumour growth at total effective dose of 14 mg/kg, iv measured on day 23; type: functional; conditions: 552 h, time 23 day, read-out: TGI
[31] = test system: W256; assay: Antitumour activity against Walker 256 adenocarcinoma cells implanted in Wistar rat assessed as increase in animal survival rate by measuring T/C ratio at 5 mg/kg, ip qd for 3 days administered on day 3,4,5 after tumor cell transplantation; type: functional; conditions: time 3 day
[32] = test system: NCI-H460; assay: Antitumour activity against human NCI-H460 cells xenografted in Crl:Nu-Foxnl nu mouse assessed as inhibition of tumour growth at total effective dose of 60 mg/kg, ip measured on day 14; type: functional; conditions: 336 h, time 14 day, read-out: TGI
[33] = test system: PANC-1; assay: Antitumour activity against human PANC-1 cells xenografted in Crl:Nu-Foxnl nu mouse assessed as inhibition of tumour growth at total effective dose of 10 mg/kg, iv measured on day 37; type: functional; conditions: PANC-1, iv, 888 h, time 37 day, read-out: TGI
[34] = test system: W256; assay: Antitumour activity against Walker 256 adenocarcinoma cells implanted in Wistar rat assessed as increase in animal survival rate by measuring T/C ratio at 20 mg/kg, ip qd for 3 days administered on day 3,4,5 after tumor cell transplantation; type: functional; conditions: time 3 day
[35] = test system: NCI-H460; assay: Antitumour activity against human NCI-H460 cells xenografted in Crl:Nu-Foxnl nu mouse assessed as inhibition of tumour growth at total effective dose of 60 mg/kg, iv measured on day 17; type: functional; conditions: 408 h, time 17 day, read-out: TGI
[36] = test system: PANC-1; assay: Antitumour activity against human PANC-1 cells xenografted in Crl:Nu-Foxnl nu mouse assessed as inhibition of tumour growth at total effective dose of 30 mg/kg, iv measured on day 45; type: functional; conditions: PANC-1, iv, 1080 h, time 45 day, read-out: TGI
[37] = test system: PC-3; assay: Antitumour activity against human PC-3 cells xenografted in Crl:Nu-Foxnl nu mouse assessed as inhibition of tumour growth at total effective dose of 8 mg/kg, iv measured on day 39; type: functional; conditions: PC-3, iv, 936 h, time 39 day, read-out: TGI
[38] = test system: HCT-116; assay: Antitumour activity against human HCT-116 cells xenografted in Crl:Nu-Foxnl nu mouse assessed as inhibition of tumour growth at total effective dose of 100 mg/kg, ip measured on day 23; type: functional; conditions: HCT-116, ip, 552 h, time 23 day, read-out: TGI

Structure (SMILES) | ΔTm [2] [°C] | IC50 [4] [nM] | IC50 [5] [nM] | IC50 [6] [nM] | IC50 [8] [nM] | IC50 [10] [nM] | ΔTm [12] [°C] | IC50 [13] [nM] | ΔTm [14] [°C] | IC50 [15] [nM] | ΔTm [16] [°C] | IC50 [19] [nM] | IC50 [20] [nM] | IC50 [22] [nM] | T/C [31] [%] | also measured
Cc1ccc(NCCCN2CCN(CCCNc3c4ccccc4nc4cccc([N+](=O)[O-])c34)CC2)c2c(=O)c3cc(O)ccc3[nH]c12 | 27.6 | 48 | 23 | 84 | 28 | 19 | 7.3 | 27 | 17.9 | 9.5 | 1.7 | 16 | 20 | 5 |  | inhibition in vivo at 8 mg/kg [1]: 51%; T/C [3]: 250%; inhibition in vivo at 120 mg/kg [7]: 75%; inhibition in vivo at 32 mg/kg [9]: 90%; IC50 [11]: 59 nM; IC50 [17]: 113 nM; inhibition in vivo at 10 mg/kg [18]: 42%; IC50 [21]: 79 nM; inhibition in vivo at 8 mg/kg [23]: 30%
Cc1ccc([N+](=O)[O-])c2c(NCCCN3CCN(CCCNc4ccc(C)c5[nH]c6ccc(O)cc6c(=O)c45)CC3)c3ccccc3nc12 |  |  | 61 | 300 | 48 | 47 |  |  |  |  |  | 67 | 46 | 40 |  | T/C [24]: 300%; inhibition in vivo at 48 mg/kg [25]: 25%; inhibition in vivo at 30 mg/kg [26]: 6%
Cc1ccc(NCCNCCNc2c3ccccc3nc3cccc([N+](=O)[O-])c23)c2c(=O)c3ccccc3[nH]c12 | 28.1 |  | 138 | 250 | 137 |  | 37.7 | 212 | 28.5 |  |  |  | 243 |  |  | T/C [27]: 350%; inhibition in vivo at 16 mg/kg [28]: 75%; inhibition in vivo at 40 mg/kg [29]: 61%; inhibition in vivo at 14 mg/kg [30]: 46%
Cc1ccc([N+](=O)[O-])c2c(NCCCNCCCNc3ccc(C)c4[nH]c5ccccc5c(=O)c34)c3ccccc3nc12 |  |  | 1300 | 213 |  | 85 |  | 162 |  | 105 |  |  | 129 | 67 | 1300 | inhibition in vivo at 60 mg/kg [32]: 25%
Cc1ccc([N+](=O)[O-])c2c(NCCCN3CCN(CCCNc4ccc([N+](=O)[O-])c5[nH]c6ccccc6c(=O)c45)CC3)c3ccccc3nc12 | 21.6 | 362 |  |  |  | 83 | 8.7 | 130 | 19.4 | 63 | 2.6 | 108 | 41 | 40 |  | inhibition in vivo at 10 mg/kg [33]: 27%; T/C [34]: 550%; inhibition in vivo at 60 mg/kg [35]: 24%; inhibition in vivo at 30 mg/kg [36]: 72%; inhibition in vivo at 8 mg/kg [37]: 30%
Cc1ccc([N+](=O)[O-])c2c(NCCCN(C)CCCNc3ccc([N+](=O)[O-])c4[nH]c5ccccc5c(=O)c34)c3ccccc3nc12 | 28.5 |  | 230 |  |  | 74 | 6.8 | 110 | 18.8 | 54 | 2.4 |  | 44 | 55 | 1000 | inhibition in vivo at 100 mg/kg [38]: 52%
